Measurements: ChEMBL document CHEMBL4014351, “Discovery of Allosteric Inhibitors Targeting the Spliceosomal RNA Helicase Brr2” (J Med Chem, 2017)
Values after ≈ are worked out from the molar mass of the structure shown.

What was measured:
[1] = molecular target: T1, U5 small nuclear ribonucleoprotein 200 kDa helicase (Homo sapiens, UniProt O75643); assay: biochemical
Description: Inhibition of full length recombinant human N-terminal His-tagged BRR2 RNA dependent ATPase activity expressed in baculovirus infected Sf9 cells using single stranded poly(U) RNA as substrate after 30 mins by ADP-Glo luminescence assay

physchem [2] = settings: 1-octanol/aqueous buffer, pH 7.4
[3] = molecular target: Eukaryotic initiation factor 4A-I (Homo sapiens, UniProt P60842)
Description: Inhibition of eIF4G-induced full length recombinant human N-terminal His6/SUMO-tagged eIF4A1 RNA dependent ATPase activity expressed in Escherichia coli BL21(DE3) using single stranded poly(U) RNA as substrate after 30 mins by ADP-Glo luminescence assay

physchem [4] = settings: aqueous buffer, pH 6.8
Description: Solubility of the compound in pH 6.8 aqueous buffer by UV absorbance method

physchem [5] = settings: PAMPA, pH 7.4
Description: Permeability of the compound at 10 uM at pH 7.4 after 3 hrs by PAMPA

[6] = molecular target: Eukaryotic initiation factor 4A-III (Homo sapiens, UniProt P38919)
Description: Inhibition of MLN51-induced full length recombinant human N-terminal His6/SUMO-tagged eIF4A3 RNA dependent ATPase activity expressed in Escherichia coli BL21(DE3) using single stranded poly(U) RNA as substrate after 30 mins by ADP-Glo luminescence assay

[7] = molecular target: T2, ATP-dependent RNA helicase DHX29 (Homo sapiens, UniProt Q7Z478); assay: biochemical
T2 sequence (Q7Z478 whole entry): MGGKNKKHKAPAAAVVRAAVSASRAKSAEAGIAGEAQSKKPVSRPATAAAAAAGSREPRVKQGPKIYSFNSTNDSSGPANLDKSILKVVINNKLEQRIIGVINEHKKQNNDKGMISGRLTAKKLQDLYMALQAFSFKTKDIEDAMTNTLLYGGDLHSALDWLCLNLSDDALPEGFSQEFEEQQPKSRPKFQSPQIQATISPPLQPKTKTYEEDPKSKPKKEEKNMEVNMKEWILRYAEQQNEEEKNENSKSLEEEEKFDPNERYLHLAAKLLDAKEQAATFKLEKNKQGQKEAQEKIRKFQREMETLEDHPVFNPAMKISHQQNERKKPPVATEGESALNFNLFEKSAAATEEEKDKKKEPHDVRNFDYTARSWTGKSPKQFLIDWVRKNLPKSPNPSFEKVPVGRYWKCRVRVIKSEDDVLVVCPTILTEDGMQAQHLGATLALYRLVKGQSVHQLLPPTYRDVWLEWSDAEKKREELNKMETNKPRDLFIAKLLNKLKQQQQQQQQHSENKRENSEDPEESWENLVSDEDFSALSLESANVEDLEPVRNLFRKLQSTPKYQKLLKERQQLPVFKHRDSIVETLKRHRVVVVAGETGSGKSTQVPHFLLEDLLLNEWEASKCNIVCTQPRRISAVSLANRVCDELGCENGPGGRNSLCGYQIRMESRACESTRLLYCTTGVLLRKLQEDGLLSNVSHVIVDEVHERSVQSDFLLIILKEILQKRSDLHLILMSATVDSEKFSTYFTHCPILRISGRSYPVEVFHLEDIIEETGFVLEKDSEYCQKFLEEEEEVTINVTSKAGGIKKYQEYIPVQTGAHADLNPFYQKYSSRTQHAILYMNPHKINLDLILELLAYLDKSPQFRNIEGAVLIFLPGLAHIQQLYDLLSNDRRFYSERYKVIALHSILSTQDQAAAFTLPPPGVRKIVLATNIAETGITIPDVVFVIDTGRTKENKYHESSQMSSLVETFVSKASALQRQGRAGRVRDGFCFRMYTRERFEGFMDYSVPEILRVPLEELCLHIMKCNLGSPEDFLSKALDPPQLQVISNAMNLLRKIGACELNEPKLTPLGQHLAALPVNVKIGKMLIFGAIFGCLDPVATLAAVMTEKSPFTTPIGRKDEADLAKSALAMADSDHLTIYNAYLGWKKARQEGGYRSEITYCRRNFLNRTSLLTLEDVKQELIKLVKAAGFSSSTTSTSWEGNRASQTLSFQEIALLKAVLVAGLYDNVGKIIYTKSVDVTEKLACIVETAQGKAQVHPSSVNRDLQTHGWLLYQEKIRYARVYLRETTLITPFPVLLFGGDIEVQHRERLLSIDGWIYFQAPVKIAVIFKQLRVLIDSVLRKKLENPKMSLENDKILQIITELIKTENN
Description: Inhibition of full length recombinant human N-terminal FLAG-His-tagged DHX29 RNA dependent ATPase activity expressed in baculovirus infected Sf9 insect cells using single stranded poly(U) RNA as substrate after 30 mins by ADP-Glo luminescence assay

[8] = molecular target: T1, U5 small nuclear ribonucleoprotein 200 kDa helicase; assay: biochemical; remark: listed apart in the source

T1 sequence (O75643 whole entry): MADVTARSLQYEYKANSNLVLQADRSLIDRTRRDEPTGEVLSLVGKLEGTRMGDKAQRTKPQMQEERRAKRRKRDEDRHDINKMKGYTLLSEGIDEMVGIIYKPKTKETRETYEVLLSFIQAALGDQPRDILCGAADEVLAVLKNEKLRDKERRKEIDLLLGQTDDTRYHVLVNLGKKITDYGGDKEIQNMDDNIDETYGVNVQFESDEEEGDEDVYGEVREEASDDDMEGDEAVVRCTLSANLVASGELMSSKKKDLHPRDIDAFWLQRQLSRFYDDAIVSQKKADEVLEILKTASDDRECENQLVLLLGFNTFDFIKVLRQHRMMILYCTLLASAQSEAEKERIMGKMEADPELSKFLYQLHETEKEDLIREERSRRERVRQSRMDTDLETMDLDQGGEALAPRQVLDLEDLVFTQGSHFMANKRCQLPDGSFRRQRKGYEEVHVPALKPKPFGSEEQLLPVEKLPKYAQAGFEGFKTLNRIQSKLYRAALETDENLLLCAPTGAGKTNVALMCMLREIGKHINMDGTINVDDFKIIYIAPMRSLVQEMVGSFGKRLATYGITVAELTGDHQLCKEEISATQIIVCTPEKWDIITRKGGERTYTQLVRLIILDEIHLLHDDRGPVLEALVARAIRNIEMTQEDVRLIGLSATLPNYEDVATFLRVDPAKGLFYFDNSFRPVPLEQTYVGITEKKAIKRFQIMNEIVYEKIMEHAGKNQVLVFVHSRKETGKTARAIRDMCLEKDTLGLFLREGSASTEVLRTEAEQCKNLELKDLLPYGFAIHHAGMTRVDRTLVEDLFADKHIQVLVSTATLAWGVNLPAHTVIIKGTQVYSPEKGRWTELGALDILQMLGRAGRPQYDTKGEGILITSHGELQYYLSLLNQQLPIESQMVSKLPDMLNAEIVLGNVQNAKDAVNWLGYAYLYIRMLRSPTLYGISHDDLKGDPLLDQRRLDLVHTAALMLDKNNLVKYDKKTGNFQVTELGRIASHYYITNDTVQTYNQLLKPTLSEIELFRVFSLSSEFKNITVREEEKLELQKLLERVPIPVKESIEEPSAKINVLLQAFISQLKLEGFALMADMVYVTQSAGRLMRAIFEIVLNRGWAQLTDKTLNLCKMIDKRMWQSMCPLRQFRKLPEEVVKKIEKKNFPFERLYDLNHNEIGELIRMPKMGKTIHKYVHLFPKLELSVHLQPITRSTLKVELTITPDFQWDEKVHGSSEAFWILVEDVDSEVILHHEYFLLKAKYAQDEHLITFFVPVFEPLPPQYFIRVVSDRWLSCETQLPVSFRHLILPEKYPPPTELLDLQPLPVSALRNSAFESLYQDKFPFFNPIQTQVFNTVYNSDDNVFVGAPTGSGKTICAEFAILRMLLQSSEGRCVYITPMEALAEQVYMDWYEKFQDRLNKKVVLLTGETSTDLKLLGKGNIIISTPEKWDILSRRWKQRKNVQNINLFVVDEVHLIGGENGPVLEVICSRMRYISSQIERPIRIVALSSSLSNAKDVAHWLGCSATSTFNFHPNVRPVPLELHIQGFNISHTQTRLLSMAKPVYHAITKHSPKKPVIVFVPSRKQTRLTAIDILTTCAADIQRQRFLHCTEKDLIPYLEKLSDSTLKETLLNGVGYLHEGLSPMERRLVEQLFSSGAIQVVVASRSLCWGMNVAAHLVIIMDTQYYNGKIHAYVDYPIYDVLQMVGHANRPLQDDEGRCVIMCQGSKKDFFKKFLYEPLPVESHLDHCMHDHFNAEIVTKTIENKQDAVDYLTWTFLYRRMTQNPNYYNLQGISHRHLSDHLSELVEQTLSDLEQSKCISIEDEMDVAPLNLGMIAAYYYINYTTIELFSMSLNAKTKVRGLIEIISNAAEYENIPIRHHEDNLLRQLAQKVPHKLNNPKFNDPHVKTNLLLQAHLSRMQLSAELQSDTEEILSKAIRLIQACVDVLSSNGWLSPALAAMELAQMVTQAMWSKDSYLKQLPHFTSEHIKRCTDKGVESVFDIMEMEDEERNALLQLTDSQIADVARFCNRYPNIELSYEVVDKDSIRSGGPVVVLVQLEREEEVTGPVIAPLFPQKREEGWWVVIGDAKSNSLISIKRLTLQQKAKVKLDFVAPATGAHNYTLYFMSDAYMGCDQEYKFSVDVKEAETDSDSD
Eukaryotic initiation factor 4A-III, sequence (P38919 whole entry): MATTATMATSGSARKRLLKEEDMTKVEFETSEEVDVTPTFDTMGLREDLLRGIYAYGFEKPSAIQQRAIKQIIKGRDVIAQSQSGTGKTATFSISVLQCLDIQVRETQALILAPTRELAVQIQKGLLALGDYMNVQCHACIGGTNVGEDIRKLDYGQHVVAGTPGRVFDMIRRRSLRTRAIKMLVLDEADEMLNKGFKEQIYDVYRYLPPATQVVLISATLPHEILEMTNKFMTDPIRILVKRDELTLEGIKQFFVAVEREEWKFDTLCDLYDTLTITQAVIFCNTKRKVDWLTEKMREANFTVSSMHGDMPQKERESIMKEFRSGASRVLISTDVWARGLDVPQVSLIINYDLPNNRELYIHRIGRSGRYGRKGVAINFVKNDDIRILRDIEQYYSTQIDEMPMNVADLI
Eukaryotic initiation factor 4A-I, sequence (P60842 whole entry): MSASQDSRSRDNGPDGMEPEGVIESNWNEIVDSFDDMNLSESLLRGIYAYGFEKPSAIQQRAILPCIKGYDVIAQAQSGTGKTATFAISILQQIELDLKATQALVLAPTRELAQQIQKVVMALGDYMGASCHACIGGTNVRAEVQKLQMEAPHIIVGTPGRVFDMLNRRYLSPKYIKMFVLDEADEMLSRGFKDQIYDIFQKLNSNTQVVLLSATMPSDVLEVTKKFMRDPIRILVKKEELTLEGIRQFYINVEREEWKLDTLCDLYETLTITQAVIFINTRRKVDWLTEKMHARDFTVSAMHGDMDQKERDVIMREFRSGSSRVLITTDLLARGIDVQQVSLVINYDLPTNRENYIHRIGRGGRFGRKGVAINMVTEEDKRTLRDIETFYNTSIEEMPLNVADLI

Structure (SMILES) | IC50 [1] [µM] | chromatographic logD (physchem [2]) | IC50 [3] [µM] | solubility (physchem [4]) [µg/mL] | Papp at 3 h, 10 µM (physchem [5]) [×10⁻⁶ cm/s] | IC50 [6] [µM] | IC50 [7] [µM] | IC50 [8] [µM]
Cc1cc2c(cc1N1Cc3cn(C)c(=O)cc3NC1=O)OC(c1ncccc1F)CC2 (racemic) | > 100 |  |  |  |  |  |  | 
O=C1Nc2cc(=O)n(Cc3ccccc3)cc2CN1c1cccc(OCc2cccnc2)c1 | 0.18 | 1.9 | > 100 | 59 (≈ 135 µM) | 14.2 | > 100 |  | 
O=C1Nc2cc(=O)n(Cc3ccccc3)cc2CN1c1cccc(OCc2ccccn2)c1 |  | 2 |  | 69 (≈ 157 µM) | 27.3 |  |  | 
Cc1cc2c(cc1N1Cc3cn(Cc4ccccc4)c(=O)cc3NC1=O)OC(c1ncccc1F)CC2 (racemic) | 5.3 |  | > 100 |  |  | > 100 | > 100 | 
N=C1/C(=C/c2ccc(-c3cccc(C(=O)O)c3)o2)C(=O)N=C2SC(C3CCCCC3)=NN12 | 5.3 |  | 57 |  |  | 32 | 58 | 
Cc1cc2c(cc1N1Cc3cn(Cc4ccccc4)c(=O)cc3N(C)C1=O)OC(c1ncccc1F)CC2 (racemic) | > 100 |  |  |  |  |  |  | 
O=C1Nc2cc(=O)n(Cc3ccccc3)cc2CN1c1cccc(OCc2cncs2)c1 | 0.079 | 1.7 | > 100 | 49 (≈ 110 µM) | 13.1 | > 100 | > 100 | 1.3
